According to patent US12630579B2, “Proteolysis targeting compound with tissue targeting capability and use thereof” (TAI BI DI PHARMACEUTICAL TECHNOLOGY (SHIJIAZHUANG) CO. LTD, priority 2020, dated 2026):
Values after ≈ are worked out from the molar mass of the structure shown.

Tests used:
[1] = Solubility test (equilibrium solubility in deionized water, HPLC); type: physicochemical; details: thermodynamic from solid, 37° C.
Procedure: Series solutions of 1 nM/10 nM/100 nM/100 nM/1 uM/10 uM/100 uM/1 mM were prepared according to following steps: WG compounds to be tested in the present application and corresponding compounds of structure A were respectively weighed, dissolved in deionized water, and oscillated at 37° C. for 12 hours to reach dissolution equilibrium. The resulted solutions were filtered 3 times with a filter membrane, and filtrates were collected. Actual concentrations of the compounds in the solutions were determined with HPLC. A curve of actual concentration of the solution—planned concentration of the solution was drawn, and the turning point of the curve indicated the equilibrium concentration of the compounds.

[2] = test system: Liver cancer cells (HUH-7); test: Transmembrane test; type: in vitro ADME; details: HUH-7, 24 hours, arithmetic mean over concentrations
Procedure: (§1) Liver cancer cells (HUH-7) were seeded in a 6-well plate at a concentration of 4*10^5 cells/mL, 2 mL per well, and cultured overnight until the cells were adherent to the wall.
(§2) The next day, compound solutions were prepared as follows: WG compounds of present application and corresponding compounds of structure A were respectively weighed, prepared with pure DMSO into mother solutions of high concentration, then gradiently diluted to obtain compound solutions of 10 uM/30 uM/100 uM/150 uM/300 uM in 10% DMSO, and shaken to mix well.
When the cells were adherent to the wall under microscope observation, 200 uL of compound solutions were added to each well with a ratio of compound solution to culture medium at 1:10.
After culture for 24 hours, the culture medium was sucked out with a pipette, and the wells were then washed five times with phosphate buffer, 2 mL each time for 30 seconds, to ensure there were no compound residues in the environment of the cells. Solutions in the wells were thoroughly sucked up, and 150 uL RIPA Lysis Buffer was added into each well. Then the culture was continued on ice for 30 min to lyse the cells. Lysates were collected and centrifuged at […] for 1 h, and supernatants were collected and characterized with HPLC to determine the concentration of the compounds therein.
The solubility and changes of transmembrane efficiency of WG compounds relative to corresponding compounds of structure A were analyzed and calculated. An arithmetic mean value of transmembrane efficiency changes under different concentrations was calculated, thereby obtaining a reference value of the difference of transmembrane efficiency between two groups of compounds.

[3] = test system: Liver cancer cells (HUH-7); test: Cell growth inhibition test (cck-8); type: cell-based; details: HUH-7, 72 hours
Procedure: Liver cancer cells (HUH-7) were seeded in a 96-well plate at a concentration of 2*10^4 cells/mL, 100 uL per well, and cultured overnight.
as §2, with “day, the cells were observed microscope to ensure adherence. Compound” for “day, compound”, “10 nM/100 nM/300 nM/1000 nM/3000 nM” for “10 uM/30 uM/100 uM/150 uM/300 uM”
Positive drug solutions in the control group were prepared with the same solvent and method, and only a single dosage was required. In this test, the positive drug solution is 1 uM lenvatinib.
After solution preparation was completed, 10 uL of compound solutions were added into each well of the 96-well plate, three duplicates for each dosage. The plate was gently shaken to allow the cells to repeatedly contact with the compound solutions, and then the plate was placed in an incubator to culture for 72 hours. 72 hours later, the plate was taken out and 10 uL cck-8 reagent was added into each well and shaken gently to mix well. Then the plate was placed in an incubator to culture for two hours. Two hours later, the plate was taken out and analyzed with a microplate reader to measure the absorbance of each well at a wavelength of 450 nm.
A graph can be drawn according to the gradient of concentrations, and the results can be compared directly.

[4] = test system: target protein in liver cancer cells (HUH-7); test: Proteolysis test (Western blot of target protein); type: cell-based; design: key to Protein content (blackness of experimental group / blank control group): blot blackness of treated / blank control (fraction of control); details: HUH-7, 24 hours
Procedure: as §1
as §2, with “nM/30 nM/100 nM/300 nM/1000 nM/3000 nM” for “uM/30 uM/100 uM/150 uM/300 uM”, “well. 200 uL of compound solutions were added to each well with a ratio of compound solution to culture medium at 1:10.” for “well.”
After culture for 24 hours, the culture medium was sucked out with a pipette, and then the wells were washed 3 times with PBS. Solutions in the wells were thoroughly sucked up, and 150 uL RIPA Lysis Buffer was added into each well. Then the culture was continued on ice for 30 min to lyse the cells.
Lysates were collected and centrifuged at 16000 rpm for 10 minutes. Supernatants were collected and the total protein content was normalized with a BCA kit to determine target protein contents with Western blot.
The results were analyzed with ImageJ. Blackness of each strip was measured and the protein was quantified for comparison analysis according to formula: Protein content=blackness value of the experimental group/blackness value of the blank control group.

IC50 ([3]; Homo sapiens)	SMILES	solubility thermodynamic at 12 h [1]	Transmembrane efficiency relative to corresponding compound of structure A (WGint4) [2]	DC50 [4]	Protein content (blackness of experimental group / blank control group) ([4]; dosage 1 nM)	Protein content (blackness of experimental group / blank control group) ([4]; dosage 10 nM)	Protein content (blackness of experimental group / blank control group) ([4]; dosage 30 nM)	Protein content (blackness of experimental group / blank control group) ([4]; dosage 100 nM)	Protein content (blackness of experimental group / blank control group) ([4]; dosage 300 nM)	IC50 [3]	solubility thermodynamic ([1]; 12 hours)
	COc1cc2c(Oc3ccc(NC(=O)C4(C(=O)Nc5ccc(F)cc5)CC4)cc3)ccnc2cc1OCCCOCCCOCCC(=O)N[C@H](C(=O)N1C[C@H](OP(=O)(O)OCCCCCCCCCC(=O)NC(COCCC(=O)NCCCNC(=O)CCCCOC2OC(CO)C(O)C(O)C2NC(C)=O)(COCCC(=O)NCCCNC(=O)CCCCOC2OC(CO)C(O)C(O)C2NC(C)=O)COCCC(=O)NCCCNC(=O)CCCCOC2OC(CO)C(O)C(O)C2NC(C)=O)C[C@H]1C(=O)NCc1ccc(-c2scnc2C)cc1)C(C)(C)C (some centres unmarked) [WG-4(00500639)]	476 µM (≈ 1300 µg/mL)	WG-4 is about 17.1 times								
211 nM	COc1cc2nccc(Oc3ccc(NC(=O)NC4CC4)c(Cl)c3)c2cc1C(=O)NCCCCCCC(=O)N[C@H](C(=O)N1C[C@H](O)C[C@H]1C(=O)NCc1ccc(-c2scnc2C)cc1)C(C)(C)C [WGint4 (003006)]	31 µM (≈ 30 µg/mL)		150 nM	0.97	0.97	0.84	0.65	0.22		
	COc1cc2c(Oc3ccc(NC(=O)C4(C(=O)Nc5ccc(F)cc5)CC4)cc3F)ccnc2cc1OCCCOCCCOCCC(=O)N[C@H](C(=O)N1C[C@H](OP(=O)(O)OCCCCCCCCCC(=O)NC(COCCC(=O)NCCCNC(=O)CCCCOC2OC(CO)C(O)C(O)C2NC(C)=O)(COCCC(=O)NCCCNC(=O)CCCCOC2OC(CO)C(O)C(O)C2NC(C)=O)COCCC(=O)NCCCNC(=O)CCCCOC2OC(CO)C(O)C(O)C2NC(C)=O)C[C@H]1C(=O)NCc1ccc(-c2scnc2C)cc1)C(C)(C)C (some centres unmarked) [WG-5(00600639)]	731 µM (≈ 2010 µg/mL)	WG-5 is about 11.5 times								
	COc1cc2nccc(Oc3ccc(NC(=O)NC4CC4)c(Cl)c3)c2cc1C(=O)NCCCCCCC(=O)N[C@H](C(=O)N1C[C@H](OP(=O)(O)OCCCCCCCCCC(=O)NC(COCCC(=O)NCCCNC(=O)CCCCOC2OC(CO)C(O)C(O)C2NC(C)=O)(COCCC(=O)NCCCNC(=O)CCCCOC2OC(CO)C(O)C(O)C2NC(C)=O)COCCC(=O)NCCCNC(=O)CCCCOC2OC(CO)C(O)C(O)C2NC(C)=O)C[C@H]1C(=O)NCc1ccc(-c2scnc2C)cc1)C(C)(C)C (some centres unmarked) [WG-1 (00300639)]	677 µM (≈ 1770 µg/mL)	about 9.2 times	18 nM	0.93	0.72	0.31	0.16	0.13	21.3 nM	
	COc1cc2nccc(Oc3ccc(NC(=O)NC4CC4)c(Cl)c3)c2cc1C(=O)NCCCCCCC(=O)N[C@H](C(=O)N1C[C@H](OP(=O)(O)OCCCCCCCCCC(=O)NC(CNC(=O)CCCCCCOC2OC(CO)C(O)C(O)C2NC(C)=O)CNC(=O)CCCCCCOC2OC(CO)C(O)C(O)C2NC(C)=O)C[C@H]1C(=O)NCc1ccc(-c2scnc2C)cc1)C(C)(C)C (some centres unmarked) [WG-2(00300629)]	603 µM (≈ 1180 µg/mL)	WG-2 is about 8.3 times	21.4 nM						29.5 nM	
	CC(=O)N[C@H]1[C@H](OCCCCC(=O)NCCCNC(=O)CCOCC(COCCC(=O)NCCCNC(=O)CCCCO[C@@H]2O[C@H](CO)[C@H](O)[C@H](O)[C@H]2NC(C)=O)(COCCC(=O)NCCCNC(=O)CCCCO[C@@H]2O[C@H](CO)[C@H](O)[C@H](O)[C@H]2NC(C)=O)NC(=O)CCCCCCCCCOP(=O)(O)O[C@@H]2C[C@@H](C(=O)NCc3ccc(-c4scnc4C)cc3)N(C(=O)[C@@H](NC(=O)COCCOCCN(C)C(=O)c3cc(Oc4ccc(NC(=O)Nc5ccc(Cl)c(C(F)(F)F)c5)cc4)ccn3)C(C)(C)C)C2)O[C@H](CO)[C@H](O)[C@@H]1O [WG-3(00400639)]		WG-3 is about 15 times	81.4 nM						79.9 nM	255 µM (≈ 681 µg/mL)
